Measurements: US11344532B2, “Topically administrable formulation for the control and prevention of animal parasites” (BAYER ANIMAL HEALTH GMBH, priority 2017, dated 2022)
Like-named read-outs stand apart in the source and are kept apart here.

Assays:
[1] = solubilities of active compounds in solvents; assay type: physicochemical
Experimental: The flash point of 130° C. is sufficiently high for safe production. Studies with selected fluorinated antiparasitics in triethyl phosphate formulations show good and long-lasting activity against fleas and various ticks on dogs and cats.

[2] = toxicity of triethyl phosphate
[3] = skin compatibility of triethyl phosphate; details: with rats, dogs and cats
[4] = solvent 83.3% propylene carbonate 16.7% benzyl alcohol

In the case of `O=C(NC1CC1)c1cc(-c2cnn(-c3c(Cl)cc(C(F)(C(F)(F)F)C(F)(F)F)cc3OC(F)(F)F)c2)cnc1Cl` [Compound 1, 2-chloro-5-[1-[2-chloro-4-[1,2,2,2-tetrafluoro-1-(trifluoromethyl)ethyl]-6-(trifluoromethoxy)phenyl]-1H-pyrazol-4-yl]-N-cyclopropyl-3-pyridinecarboxamide], the “solubility in 83.3% propylene carbonate 16.7% benzyl alcohol” value [1, 4] is reported as 17% (w/w), the “solubility in propylene carbonate” value ([1]; solvent propylene carbonate) is reported as 5% (w/w) and the “solubility in triethyl phosphate” value ([1]; solvent triethyl phosphate) is reported as 44% (w/w).
With `O=C(NC1CC1)c1cc(-c2cnn(-c3c(Cl)cc(C(F)(C(F)(F)F)C(F)(F)F)cc3C(F)(F)F)c2)cnc1Cl` [Compound 2, 2-chloro-5-[1-[2-chloro-4-[1,2,2,2-tetrafluoro-1-(trifluoromethyl)ethyl]-6-(trifluoromethyl)phenyl]-1H-pyrazol-4-yl]-N-cyclopropyl-3-pyridinecarboxamide] the “solubility in 83.3% propylene carbonate 16.7% benzyl alcohol” value [1, 4] was 14% (w/w), the “solubility in propylene carbonate” value ([1]; solvent propylene carbonate) was 4% (w/w) and the “solubility in triethyl phosphate” value ([1]; solvent triethyl phosphate) was 40% (w/w).
With `CCOP(=O)(OCC)OCC` [Triethyl phosphate, triethyl phosphate] the toxicity [2] was “low toxicity” and the skin compatibility [3] was “excellent skin compatibility”.
In the case of `N#Cc1nn(-c2c(Cl)cc(C(F)(F)F)cc2Cl)c(N)c1[S+]([O-])C(F)(F)F` (centres unmarked) [fipronil], the “solubility in 83.3% propylene carbonate 16.7% benzyl alcohol” value [1] is reported as 5% (w/w), the “solubility in propylene carbonate” value [1] is reported as 11% (w/w) and the “solubility in triethyl phosphate” value [1] is reported as 36% (w/w).
With `Cc1cc(C2=NOC(c3cc(Cl)cc(Cl)c3)(C(F)(F)F)C2)ccc1C(=O)NCC(=O)NCC(F)(F)F` (centres unmarked) [fluralaner] the “solubility in 83.3% propylene carbonate 16.7% benzyl alcohol” value [1, 4] was 13% (w/w), the “solubility in propylene carbonate” value ([1]; solvent propylene carbonate) was 7% (w/w) and the “solubility in triethyl phosphate” value ([1]; solvent triethyl phosphate) was 41% (w/w).
With `CON=CNC(=O)c1ccc(C2=NOC(c3cc(Cl)cc(Cl)c3)(C(F)(F)F)C2)cc1C` (centres unmarked) [fluxametamide] the “solubility in 83.3% propylene carbonate 16.7% benzyl alcohol” value [1, 4] was 6% (w/w), the “solubility in propylene carbonate” value ([1]; solvent propylene carbonate) was 3% (w/w) and the “solubility in triethyl phosphate” value ([1]; solvent triethyl phosphate) was 20% (w/w).
In the case of `N#Cc1nn(-c2c(Cl)cc(C(F)(F)F)cc2Cl)c(NCc2ccccn2)c1SC(F)F` [pyriprole], the “solubility in 83.3% propylene carbonate 16.7% benzyl alcohol” value [1, 4] is reported as 28% (w/w), the “solubility in propylene carbonate” value ([1]; solvent propylene carbonate) is reported as 21% (w/w) and the “solubility in triethyl phosphate” value ([1]; solvent triethyl phosphate) is reported as 49% (w/w).
With `Cn1nc(C(F)(F)C(F)(F)F)c(C(F)(F)F)c1-n1cc(-c2ccc(Cl)c(C(=O)NC3(C#N)CC3)c2)cn1` [tigolaner] the “solubility in 83.3% propylene carbonate 16.7% benzyl alcohol” value [1, 4] was 20% (w/w), the “solubility in propylene carbonate” value ([1]; solvent propylene carbonate) was 26% (w/w) and the “solubility in triethyl phosphate” value ([1]; solvent triethyl phosphate) was 52% (w/w).
